In patent publication US20090281184A1, “PHARMACEUTICAL FOR PREVENTION AND TREATMENT OF OPHTHALMIC DISEASE INDUCED BY IN-CREASE IN VASOPERMEABILITY” (SAPPORO MEDICAL UNIVERSITY, priority 2005, published 2009):

What was measured:
[1] = tested on: vascular endothelial cells obtained from the bovine brain; assay: Barrier function of vascular endothelial cells co-cultured with atRA-treated U373MG cells (transwell double chamber); assay type: cell-based; conditions: p<0.05
Protocol: In order to evaluate whether or not the alteration induces physiological reactions, co-cultivation with vascular endothelial was performed. […] As can be understood from FIG. 3, the […] cells (astrocytes) were grown as effector cells in the outer chamber, and treated with atRA and cultured for additional 24 hours. In the inner chamber separately prepared, vascular endothelial cells obtained from the bovine brain were cultured to prepare beforehand for forming a dense single layer cell-sheet.
The outer chamber with U373MG cells and the inner chamber with the vascular endothelial cells were jointed to start the co-culture for evaluation of the barrier function that is a tight-function of the vascular endothelial cells. […] In this experiment, as functional alterations of the vascular endothelial cells by the influence of the astrocyte, the difference in electrical resistance inside and outside of the vascular endothelial cells, and the mobility to the outer chamber of the labeled substance (^14C-labeled) added in the inner chamber were evaluated as indexes as the vascular permeability. The activity of the transferred radioactive substance is indicated as dpm (disintegrations per minutes).

[2] = tested on: GDNF; assay: GDNF expression in primary cultured human astrocyte; assay type: cell-based; conditions: for GDNP expression / suppression of the vascular permeability (expression of GDNF divided by expression of VEGF): human astrocyte; for GDNP expression: FIG. 6; for suppression of the vascular permeability (expression of GDNF divided by expression of VEGF): non-treated group as inner control; for expression of GDNF mRNA: preliminary experiment, see FIG. 6
Protocol: (§1) In Examples 1 and 2, U373MG cells, a cell line having the characteristic as astrocyte, was used for convenience of the experiment. […] Therefore, studies were made to evaluate whether or not the enhancement of the expression of GDNF by the retinoid can be observed also in the system using human astrocyte. The astrocyte used in the experiment was a primary cultured cell isolated from the human brain, and was purchased from Cambrex Corporation, USA. This means provides an advantage that observation is achievable under environments closer to those in vivo.
Whilst, the expression of VRGF that is a strong vascular hyperpermeability factor was suppressed in the treated groups. The level of suppression of the vascular permeability in the treated groups is represented by a relative amount of the two factors that define permeability, specifically, a value obtained by dividing a value of the expression of GDNF that is the permeability-suppressing factor by a value of the expression of VEGF that is a hyperpermeability factor. In this case, a value of the expression of each of non-treated groups is used as an inner control, and an amount of the expression of the treated groups is calculated from the concentration on the gel and the area. […] The experimental groups in FIG. 6 are as follows, and the upper figure indicates the photographs of the gel, the lower figure indicates visualized differences of relative amounts obtained by the quantification thereof.

[3] = tested on: diabetic model mice; assay: Streptozotocin-induced diabetic model mice, FITC dextran in the eyes as index of vascular permeability; assay type: in vivo, mouse; conditions: atRA 1 mg/kg intraperitoneally
Protocol: Male 5 to 6 week-old C57/BL6 mice were administered with streptozotocin and diabetes was chemically induce in these model mice. To these diabetic model mice, retinoids were administered to evaluate clinical effectiveness. For reference, mice without the diabetic induction were used as control.
Experimental groups: 1. Control (group of non-induction of diabetes) 2. Diabetic group (non-treated group) 3. Diabetic group (atRA-treated group) 4. Diabetic group (Am580-treated group) 5. Diabetic group (Am80-treated group)
The onset of diabetes was confirmed by periodical measurement of glucose in urine, and after all the mice became strongly positive, by measurement of blood glucose. The mice of 4 to 6 week-pathological period with diabetes were used. […] Mice were divided into 4 groups as mentioned above for the treatment. The treatment were performed by administrating atRA (1 mg/kg), Am580 (3.75 mg/kg), and Am80 (4.5 mg/kg) intraperitoneally every other day for 4 days. […] As the index of the permeability, the FITC in the eyes was measured, and the value was standardized with the FITC amount contained in cardiac blood to minimize a potential difference between each amount of dose.
As biological parameters, blood sugar (BS) and urine sugar (US) were evaluated.

[4] = tested on: vascular endothelial cells; assay: Direct treatment of vascular endothelial cells in the absence of astrocyte; assay type: cell-based; conditions: FIG. 8
Description: It is known that the vascular endothelial cells also have retinoid receptors, and accordingly, there remains a possibility that atRA contained in the cell culture medium effected directly on the vascular endothelial cells during the co-culture. However, when a recombinant protein of GDNF was directly effected on the vascular endothelial cells in the absence of astrocyte, the increase in TER and the decrease in the permeability were induced (*p<0.05), whilst these changes were not observed when the cells were treated with atRA (FIG. 8).

[5] = tested on: GDNF; assay: GDNF expression by atRA treatment in human glioma cells (quantitative RT-PCR, Southern blot); assay type: cell-based; conditions: U373MG cells
Protocol: U373MG cells were cultured in a relatively dense state, and were treated with 10 nM or 100 nM of all-trans retinoic acid (atRA). mRNA was extracted from the cells and subjected to quantitative RT-PCR, and then changes in the gene expression were analyzed and quantified by the Southern blot method. Reverse transcription was performed by using a kit manufactured by Invitrogen. The reagents were prepared according to the manufacturer's instructions, and reacted at 42° C. for 30 minutes. The product was used for PCR after denaturation of reverse transcriptase at 96° C. for 5 minutes. For the PCR reaction, each reagent manufactured by TaKaRa was prepared by mixing according to the manufacturer's instructions, and the following reactions were performed:
1) 94° C., 30 seconds 2) 94° C., 15 seconds 3) 52° C., 15 seconds 4) 72° C., 30 seconds 5) repeat of the reactions from 2) to 4) for 32 times 6) 72° C., 7 minutes
The final reaction product was used for the Southern blot test.

[6] = tested on: GDNF; assay: Suppression of GDNF expression by AGE-2 in human astrocyte (RT-PCR, ELISA); assay type: cell-based; conditions: p<0.001; for inhibition of the effect of AGE-2 to suppress the expression of GDNF, protein level: combination with AGE-2, ELISA of cell culture medium; for inhibition of the effect of AGE-2 to suppress the expression of GDNF, mRNA level: combination with AGE-2, RT-PCR
Protocol: Human astrocyte was treated with AGE-2 alone, or combinations of AGE-2 with atRA or Am580, and alterations in the expression of GDNF was evaluated in the same manner as FIG. 6.

[7] = tested on: VEGF; assay: VEGF expression in primary cultured human astrocyte; assay type: cell-based; conditions: treated groups, FIG. 6
Protocol: as §1
Whilst, the expression of VRGF that is a strong vascular hyperpermeability factor was suppressed in the treated groups. […] In this case, a value of the expression of each of non-treated groups is used as an inner control, and an amount of the expression of the treated groups is calculated from the concentration on the gel and the area. […] The experimental groups in FIG. 6 are as follows, and the upper figure indicates the photographs of the gel, the lower figure indicates visualized differences of relative amounts obtained by the quantification thereof.

[8] = tested on: MDCK (Madin Darby Canine Kidney) cell; assay: Barrier function evaluation with MDCK cells, same parameters as Example 2; assay type: cell-based, dog
Description: The vascular endothelial cell used in Example 2 is the primary culture strain obtained from the bovine brain, which has an advantage of capable of reproducing in vitro conditions more similar to those in a living body. However, unlike those called as cell lines, the strain of the primary cultured cell has limited number of division and a slow division rate, and therefore has an aspect of unsuitability for an experimental system that requires repeated examination. Accordingly, MDCK (Madin Darby Canine Kidney) cell as dog-derived kidney tubule cell (easily available commercially) was used, which cell is optimum for the evaluation of the barrier function and has been experienced of being already used in variety of experimental systems. The effect of synthetic retinoids was evaluated with the same parameter as those in Example 2. The experimental groups in FIG. 5 are as follows:
1. Non-treated group 2. atRA (RARα agonist) 3. Am80 (RARα agonist) 4. Am580 (RARα agonist)
In FIG. 5, the non-treated group (control) is defined as “1”, and relative differences thereto are shown as graphs.

[9] = 14C-labeled, co-culture with atRA-treated U373MG cells
[10] = relative to non-treated group, p<0.05

Molecule | permeability of inulin (5 kDa) [1, 9] | permeability of mannitol (182 Da) [1, 9] | TER (transepithelial electrical resistance), barrier function of the vascular endothelial cells ([1]; co-culture with U373MG cells treated with atRA) | GDNP expression [2] | suppression of the vascular permeability (expression of GDNF divided by expression of VEGF) [2] | expression of GDNF mRNA [2] | urine sugar (US) ([3]; diabetic mice, compared to the non-treated group) | TER [4] | permeability [4] | time at which the increase in GDNF expression reached a plateau level [5] | GDNF mRNA level expression ([5]; 10 nM or 100 nM, after 3 hours and 24 hours) | inhibition of the effect of AGE-2 to suppress the expression of GDNF, protein level [6] | inhibition of the effect of AGE-2 to suppress the expression of GDNF, mRNA level [6] | expression of VRGF [7] | TER ([8]; relative to non-treated group defined as 1, p<0.05) | intercellular permeability (inulin) [8, 10] | intercellular permeability (mannitol) [8, 10] | effectiveness on vascular hyperpermeability (amount of FITC in the eyes) ([3]; middle stage diabetic group, Am580 3.75 mg/kg)
CC1=C(/C=C/C(C)=C/C=C/C(C)=C/C(=O)O)C(C)(C)CCC1 [atRA, all-trans retinoic acid] | significantly suppressed | significantly suppressed | enhanced | significantly increases | about three-fold | induced the expression of GDNF mRNA in a dose-dependent and time-dependent manner | Significantly lower | not observed | not observed | about 3 hours | increased in relation to the elevated concentration | strongly inhibited | strongly inhibited | suppressed | – | – | – | –
CC1(C)CCC(C)(C)c2cc(C(=O)Nc3ccc(C(=O)O)cc3)ccc21 [Am580, 4-[(5,6,7,8-tetrahydro-5,5,8,8-tetramethyl-2-naphthalenyl)carboxamide]benzoic acid] | – | – | – | significantly increases | about three-fold | induced the expression of GDNF mRNA in a dose-dependent and time-dependent manner | – | – | – | – | – | strongly inhibited | strongly inhibited | suppressed | more effective than atRA, and much effective than Am80 | most effectively suppressed | most effectively suppressed | higher effectiveness than atRA
recombinant protein of GDNF: recombinant glial cell line-derived neurotrophic factor (protein, UniProt P39905 78-211, looked up) Glial cell line-derived …: SPDKQMAVLPRRERNRQAAAANPENSRGKGRRGQRGKNRGCVLTAIHLNVTDLGLGYETKEELIFRYCSGSCDAAETTYDKILKNLSRNRRLVSDKVGQACCRPIAFDDDLSFLDDNLVYHILRKHSAKRCGCI | – | – | – | – | – | – | – | increase | decrease | – | – | – | – | – | – | – | – | –
